Source: patent publication US20050261282A1, “Treatment of basal ganglia-related movement disorders with 2,3-benzodiazepines” (Motac Neuroscience Limited Williams House, priority 2002, published 2005)
Structures can show the parent of a compound that is named as a salt.

Assays:
[1] = cited from earlier work
MPTP-lesioned marmoset [2] = assay: L-DOPA-induced dyskinesia score in the MPTP-lesioned marmoset model of Parkinson's disease; assay type: in vivo, Marmosets (Callithrix jacchus); conditions: Tofisopam 5-20 mg/kg oral with L-DOPA 15-17.5 mg/kg oral; dyskinesia score 0-4, every 30 minutes for 4 hours; FIGS. 4 and 5
Description: The effect of Tofisopam on L-DOPA-induced dyskinesia was assessed in the MPTP-lesioned marmoset model of Parkinson's disease. 1.1.1 Preparation of MPTP-lesioned marmoset model of Parkinson's disease Marmosets (Callithrix jacchus) (bred in a closed colony at the University of Manchester) were rendered parkinsonian by subcutaneous injection of 2 mg kgl MPTP for 5 consecutive days. The marmosets were allowed to recover for a minimum of 10 weeks until their parkinsonism became stable. The degree of activity and disability before and after MPTP treatment was assessed using a combination of scales as described in section 1.1.2. Animals were then treated with L-DOPA for at least 3 weeks to prime them to elicit dyskinesia. (c) Dyskinesia—non-parametric measures based on the following scale: Dyskinesia score: 0=Absent, 1=Mild, fleeting, 2=Moderate, not interfering with normal activity, 3=Marked, at times interfering with normal activity, 4=Severe, continuous, replacing normal activity. The behavioural tests were assessed every 30 minutes for 4 hours, by post hoc analysis of video-recordings by an observer blinded to the treatment. Marmosets received all treatments as described in Table 1. The treatments were randomised such that on each day all marmosets received one of the treatments. There was at least 48 hours washout between treatments. [table]

MPTP-lesioned marmoset [3] = assay: Parkinsonian disability (mobility score) in the MPTP-lesioned marmoset model of Parkinson's disease; assay type: in vivo, Marmosets (Callithrix jacchus); conditions: Tofisopam 5-20 mg/kg oral with L-DOPA 15-17.5 mg/kg oral; mobility score 0-9, every 30 minutes for 4 hours; FIGS. 4 and 5
Description: The effect of Tofisopam on L-DOPA-induced dyskinesia was assessed in the MPTP-lesioned marmoset model of Parkinson's disease. 1.1.1 Preparation of MPTP-lesioned marmoset model of Parkinson's disease Marmosets (Callithrix jacchus) (bred in a closed colony at the University of Manchester) were rendered parkinsonian by subcutaneous injection of 2 mg kgl MPTP for 5 consecutive days. The marmosets were allowed to recover for a minimum of 10 weeks until their parkinsonism became stable. The degree of activity and disability before and after MPTP treatment was assessed using a combination of scales as described in section 1.1.2. Animals were then treated with L-DOPA for at least 3 weeks to prime them to elicit dyskinesia. […] The behavioural tests were assessed every 30 minutes for 4 hours, by post hoc analysis of video-recordings by an observer blinded to the treatment. […]

CCN(CC)CCNC(=O)c1cc(Cl)c(N)cc1OC [Metoclopramide hydrochloride, 4-amino-5-chloro-N-[2-(diethylamino)ethyl]-2-methoxy benzamide monohydrochloride monohydrate]
solubility in water [1]: freely soluble in water

CCC1C(C)=NN=C(c2ccc(OC)c(OC)c2)c2cc(OC)c(OC)cc21 (centres unmarked) [Tofisopam]
severity of L-DOPA-induced dyskinesia (MPTP-lesioned marmoset [2]): reduces the severity of L-DOPA-induced dyskinesia
antiparkinsonian action of L-DOPA (parkinsonian disability) (MPTP-lesioned marmoset [3]): without affecting the antiparkinsonian action

N[C@@H](Cc1ccc(O)c(O)c1)C(=O)O [levodopa, (−)-3-(3,4-dihydroxy-phenyl)-L-alanine]
solubility in alcohol ([1]; alcohol): insoluble in alcohol
solubility in water [1]: slightly soluble in water
